# Test results from patent US3984547A, “Veterinary feedstuffs” (Bayer Aktiengesellschaft, priority 1971, dated 1976).
# Read-outs that look alike come from different tables or passages of the source.
# Columns and labels:
# [1] = test system: Mycoplasma gallisepticum; assay: MIC, series dilution test (PPLO medium); format: cell-based; settings: Mycoplasmoides gallisepticum, 37° C, 18, 24 and 48 h, read-out: minimal inhibitory concentrations (MIC)
# Protocol: (§1) For the compound of Example 3, the following minimal inhibitory concentrations (MIC) (γ/ml of nutrient medium) were measured by the series dilution test (PPLO medium), incubation temperature 37° C, determination after 18, 24 and 48 hours.
# [2] = test system: Mycoplasma granularum; assay: MIC, series dilution test (PPLO medium); format: cell-based; settings: Acholeplasma granularum, 37° C, 18, 24 and 48 h, read-out: minimal inhibitory concentrations (MIC)
# Protocol: as §1
# [3] = test system: Mycoplasma bovirhinis; assay: MIC, series dilution test (PPLO medium); format: cell-based; settings: 37° C, 18, 24 and 48 h, read-out: minimal inhibitory concentrations (MIC)
# Protocol: as §1
# [4] = test system: Escherichia coli C 165; assay: ED100 in mice after intraperitoneal infection, Table 3; format: in vivo; settings: read-out: effective 100% dose (ED100)
# Protocol: In animal experiments on mice, the effective 100% dose (ED100) in mg/Kg was determined for certain compounds of the invention after intraperitoneal infection and subcutaneous (s.c.) or oral (p.o.) administration of the preparation.
# [5] = test system: Pseudomonas aeruginosa Bonn; assay: MIC in vitro, plate test (agar), Table 1; format: cell-based; settings: about 37° C, readings 24 and 48 h
# Protocol: The minimum inhibitory concentrations in vitro for some of the new compounds shown in Table 1 (MIC) were determined by the plate test in an agar medium of the following composition: |proteose peptone 10.0 g per liter |5.1 × 10^3 germs were inoculated per plate. […]. Readings were taken after 24 and 48 hours, and the incubation temperature was about 37° C.
MIC [1],MIC [2],MIC [3],MIC [5],Structure (SMILES),"ED100 ([4]; C165, oral (p.c. [sic]))","ED100 ([4]; C165, sc, s.c.)"
100 µg/mL,25 µg/mL,200 µg/mL,–,CN=Cc1c(C(=O)O)[n+]([O-])c2ccccc2[n+]1[O-] [Example 3],100 mg/kg,50 mg/kg
–,–,–,–,O=C(O)c1c(C=NCCO)[n+]([O-])c2ccccc2[n+]1[O-] [Example 8],100 mg/kg,50 mg/kg
–,–,–,100 µg/mL,NN=Cc1c(C(=O)O)[n+]([O-])c2ccccc2[n+]1[O-] [Example 10],–,–
